Measured values published in patent US9718781B2, “Methods and compounds for treating proliferative disorders and viral infections” (University College Dublin, National University of Ireland, …, priority 2012, dated 2017).

Tests used:
human platelets = assay: Thrombin-induced platelet aggregation of human platelets ex vivo; assay type: cell-based
Text: The method of assessing platelet aggregation also allows evaluation of the effect of the compounds of the invention on platelet aggregation upon stimulation by other agonists, e.g., adenosine diphosphate (ADP) and thrombin.

[1] = system: MDA-MB-231-2003 breast cancer cells; assay: Experimental metastasis breast tumor xenograft model in SCID mice; assay type: in vivo; settings: 360 μg/kg i.p. 24 hr and 4 hr before tumor cell injection
Procedure: An anticancer agent including a compound represented by formula X (hereinafter “X”) was evaluated for the ability to inhibit tumor growth and experimental metastasis in a breast tumor xenograft model in immunocompromised (SCID) mice.
MDA-MB-231-2003 breast cancer cells (1×10^6 in 0.1 ml PBS) were injected into the lateral tail vein of female SCID mice and the ability of X to inhibit metastasis to the lung was investigated (n=5 for the test X treated-mice or n=4 for the control PBS-treated mice). Mice were initially treated via intraperitoneal (i.p.) injection with either X (360 μg/kg; ˜5 μM final concentration in blood; the “test” mice) or with PBS (the “control” mice) some 24 hr. before tumor cell injection. A second injection (i.p.) was given at the same dosage of X (360 μg/kg) at 4 hr. before tumor cell injection to the test mice while the control mice received an equivalent volume of PBS before tumor cell injection. […] Thereafter, all mice were monitored by image analysis (IVIS® imaging system) every two weeks for tumor cells in their lungs and were sacrificed at day 28 post tumor cell injection.

[2] = Phase 1 safety/tolerability study, repeat oral dosing; settings: 360 μg/kg oral gavage twice daily
Text: Data is presented as mean body weight (±S.E.M.; FIG. 12A) or as mean percentage change in body weight (±S.E.M.; FIG. 12B) as a function of time.

[3] = system: MDA-MB-231-D3H2LN-Luc cells; assay: Spontaneous/orthotopic breast cancer model, mammary fat pad injection; assay type: in vivo; settings: for First Appearance of Mets, Mean ± S.E.M.: lymph node metastases; for Day of Sacrifice Mean ± S.E.M.: primary tumor reaching 15 mm
Text: In order to further assess the efficacy of TP20 for use as an anti-cancer, affecting primary tumor growth, and/or as an anti-metastatic agent, a spontaneous/orthotopic cancer model was employed by injection of the triple negative MDA-MB-231 breast cancer cell line (ER, PR, Her2 negative) into the mammary fat pad of immune compromised Balb-C nude mice. More specifically, in order to increase the growth rate of the primary tumor and increase the incidence of metastasis, a more aggressive variant of the MDA-MB-231 cell line, namely MDA-MB-231-D3H2LN-Luc (Jenkins et al., (2005), Breast Cancer Res, 7, 444-454), was used in the studies described below. Furthermore, the latter MDA-MB-231-D3H2LN-Luc cell line stably over-expresses the firefly luciferase gene (Luc) thereby enabling monitoring and in vivo detection of both the primary tumor and of the secondary metastasis by bioluminescent imaging in addition to assessment of the growth of the primary tumor by standard caliper measurements. In total, three groups of animals were studied and the diagram below gives an overview of the study design. FIG. 7 provides a diagram of a study design.
Body weights of the BALB/c nude mice were recorded prior to initiating the study and, thereafter, 3 times per week (Monday, Wednesday & Friday) following the mammary fat pad injection up to the point of sacrifice or death of the animal, as per welfare guidelines. Animals were typically sacrificed once the primary tumor reached 15 mm or, as required, if animals needed to be culled for welfare reasons.
BALB/C-nude mice (female, 5-7 weeks old) were pre-treated 24 and 4 hr with TP20 at 0.36 mg/kg (blue line; Group 1), 1 mg/kg (red line; Group 2) or as control, vehicle (1% DMSO in PBS; black line; Group 3) prior to injecting MDA-MB-231-D3H2LN-Luc cells (50 μl, 2×106 suspended in 50% DPBS/50% Matrigel) into the mammary fat pad with a 27.5 G needle. Thereafter, mice were treated with TP20 or vehicle thrice weekly (Monday, Wednesday & Friday) until the primary tumor width reached 15 mm. Body weight was monitored 3 times per week. The data presented represents the mean (FIG. 8A; ±S.E.M.) or Percentage in Body Weight (FIG. 8B; ±S.E.M.), where weight at day −1 is 100%.
Through the duration of the study to monitor the growth of the primary (1°) tumor, for welfare and experimental reasons, caliper measurements were performed thrice weekly (i.e., Monday, Wednesday & Friday) and involved measuring the width and length of the primary tumor mass. These measurements were then used in the following formula to calculate the tumor volume (mm3): Volume of Tumor (mm3)=length×width2×0.5
BALB/C-nude mice (female, 5-7 weeks old) were pre-treated 24 and 4 hr with TP20 at 0.36 mg/kg (blue line; Group 1), 1 mg/kg (red line; Group 2) or as control, vehicle (1% DMSO; black line; Group 3) prior to injecting MDA-MB-231-D3H2LN-Luc cells (50 μl, 2×106 suspended in 50% DPBS/50% Matrigel) into the mammary fat pad with a 27.5 G needle. Thereafter, mice were treated with TP20 or vehicle thrice weekly (Monday, Wednesday & Friday) until the primary tumor diameter reached 15 mm. Primary tumor growth was monitored thrice weekly using caliper measurements where tumor volume (mm3) is calculated by the formula Volume=Length×width2×0.5. The data presented represents the mean (±S.E.M.) tumor volume (mm3) for each of the treatment groups as a function of time (days). Fine black lines represent the linear trend for each of the treatment groups.
As the 1° tumors reached 15 mm in diameter, for welfare reasons the animals were sacrificed. The day of sacrifice was analyzed using Kaplan-Meier survival analysis and subsequent Log-Rank and Wilcoxon tests to compare any differences between the treatments groups in terms of time of death. […]

COc1ccc(-c2cccc(Oc3ccc([N+](=O)[O-])cc3S(=O)(=O)NC(=O)NC(C)(C)C)c2)cc1 [TP20, N-(tert-butylcarbamoyl)-2-((4′-methoxy-[1,1′-biphenyl]-3-yl)oxy)-5-nitrobenzene-sulfonamide]
effect on thrombin-induced platelet aggregation (human platelets): did not affect | lung tumor development ([1]; day 28): did not develop any tumors | mice surviving to the end of the experiment (day 28) ([1]; n=5): 5 | tolerability [2]: well tolerated with no safety issues/concerns | survival on repeat dosing ([2]; 14 days monitoring): All mice survived | weight loss ([2]; at Day 7): ~4% | effect on primary tumor growth ([3]; 0.36 mg/kg and 1 mg/kg vs. vehicle): significantly decreases the primary tumor growth | tolerability of repeat administration (body weight) ([3]; 0.36 mg/kg and 1 mg/kg, thrice weekly): well-tolerated | First Appearance of Mets, Mean ± S.E.M. ([3]; Group 1, 0.36 mg/kg): 22.5 ± 2.16 (N = 8) days | Day of Sacrifice Mean ± S.E.M. ([3]; Group 1, 0.36 mg/kg): 38.5 ± 2.83 (N = 8) days | First Appearance of Mets, Mean ± S.E.M. ([3]; Group 2, 1 mg/kg): 26.2 ± 3.71 (N = 9) days | Day of Sacrifice Mean ± S.E.M. ([3]; Group 2, 1 mg/kg): 38.4 ± 3.86 (N = 7) days
